Test results published in BindingDB's records for doi:10.1021/jm030438k (Harvard Medical School, 2004).

Experiments:
Dihydrofolate reductase = target: T1, Dihydrofolate reductase (Homo sapiens, UniProt P00374); test: Inhibitory concentration against dihydrofolate reductase of rat liver
T1 sequence (P00374 whole entry): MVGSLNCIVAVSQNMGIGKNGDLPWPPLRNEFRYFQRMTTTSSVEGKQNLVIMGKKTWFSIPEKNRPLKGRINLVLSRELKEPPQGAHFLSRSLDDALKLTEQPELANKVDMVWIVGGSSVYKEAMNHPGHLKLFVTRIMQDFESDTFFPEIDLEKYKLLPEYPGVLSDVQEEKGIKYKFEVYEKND

[1] = target: Dihydrofolate reductase (Homo sapiens) (UniProt P00374); test: Inhibitory concentration against dihydrofolate reductace enzyme of humans

IC50 (Dihydrofolate reductase) [nM]	IC50 [1] [nM]	SMILES
1.5		COc1cc(Cc2cnc3nc(N)nc(N)c3c2C)cc(OC)c1 [6-(3,5-Dimethoxy-benzyl)-5-methyl-pyrido[2,3-d]pyrimidine-2,4-diamine]
	2.8	Cc1ccc(Cl)cc1Cc1cnc2nc(N)nc(N)c2c1C [6-(5-Chloro-2-methyl-benzyl)-5-methyl-pyrido[2,3-d]pyrimidine-2,4-diamine]
